Reference: PubChem BioAssay AID1918958 (Molecular Pharmacology Branch, DTP, NCI, 2023)

Test system: NCI-H196 complex spheroid viability
Assay: Anticancer human tumor NCI-H196 cell line growth inhibition [LSD1];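 note: spheroids exposed to agents for 7 days before readout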;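 for viability, T/C: 100% = DMSO vehicle control viability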
Conditions: for IC50: curve of first compound; for viability, T/C: stronger effect = lower value; active = viability on the fitted dose curve at most 10% of control; inactive = the rest
In short: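 Complex spheroids of tumor cells with HUVEC and human MSCs, exposed to iadademstat combined with other agents. Each agent tested in half-log steps from near clinical Cmax (else 10 microM top), DMSO ≤0.25%.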

[1] = second compound 0.1 µM, first compound 0.00316 µM
[2] = second compound 0.1 µM, first compound 0.01 µM
[3] = second compound 0.1 µM, first compound 0.0316 µM
[4] = second compound 0.1 µM, first compound 0.1 µM
[5] = second compound 0.316 µM, first compound 0.00316 µM
[6] = second compound 0.316 µM, first compound 0.01 µM
[7] = second compound 0.316 µM, first compound 0.0316 µM
[8] = second compound 0.316 µM, first compound 0.1 µM
[9] = second compound 1 µM, first compound 0.00316 µM
[10] = second compound 1 µM, first compound 0.01 µM
[11] = second compound 1 µM, first compound 0.0316 µM
[12] = second compound 1 µM, first compound 0.1 µM
[13] = second compound 3.16 µM, first compound 0.00316 µM
[14] = second compound 3.16 µM, first compound 0.01 µM
[15] = second compound 3.16 µM, first compound 0.0316 µM
[16] = second compound 3.16 µM, first compound 0.1 µM
[17] = second compound 10 µM, first compound 0.00316 µM
[18] = second compound 10 µM, first compound 0.01 µM
[19] = second compound 10 µM, first compound 0.0316 µM
[20] = second compound 10 µM, first compound 0.1 µM

COc1cc(Nc2ncc3c(n2)-c2ccc(Cl)cc2C(c2c(F)cccc2OC)=NC3)ccc1C(=O)O + NC1CC1c1ccc(-c2cccc(O)c2)cc1
inactive: viability, T/C [1] 88.2% | viability, T/C [2] 92.9% | viability, T/C [3] 105% | viability, T/C [4] 104% | viability, T/C (second compound 0.1 µM, first compound 0.316 µM) 121% | viability, T/C (second compound 0.1 µM, first compound 1 µM) 143% | viability, T/C [5] 87.3% | viability, T/C [6] 97.6% | viability, T/C [7] 109% | viability, T/C [8] 113% | viability, T/C (second compound 0.316 µM, first compound 0.316 µM) 120% | viability, T/C (second compound 0.316 µM, first compound 1 µM) 119% | viability, T/C [9] 93% | viability, T/C [10] 115% | viability, T/C [11] 118% | viability, T/C [12] 126% | viability, T/C (second compound 1 µM, first compound 0.316 µM) 116% | viability, T/C (second compound 1 µM, first compound 1 µM) 118% | viability, T/C [13] 98.5% | viability, T/C [14] 104% | viability, T/C [15] 108% | viability, T/C [16] 110% | viability, T/C (second compound 3.16 µM, first compound 0.316 µM) 124% | viability, T/C (second compound 3.16 µM, first compound 1 µM) 112% | viability, T/C [17] 98.3% | viability, T/C [18] 114% | viability, T/C [19] 112% | viability, T/C [20] 119% | viability, T/C (second compound 10 µM, first compound 0.316 µM) 125% | viability, T/C (second compound 10 µM, first compound 1 µM) 118%
> 1000 nM: IC50 (second compound 0.1 µM) | IC50 (second compound 0.316 µM) | IC50 (second compound 1 µM) | IC50 (second compound 3.16 µM) | IC50 (second compound 10 µM)

Cn1ncnc1C1c2n[nH]c(=O)c3cc(F)cc(c23)NC1c1ccc(F)cc1 (stereo not given) + NC1CC1c1ccc(-c2cccc(O)c2)cc1
inactive: viability, T/C (second compound 0.1 µM, first compound 0.000316 µM) 96.6% | viability, T/C (second compound 0.1 µM, first compound 0.001 µM) 100% | viability, T/C [1] 102% | viability, T/C [2] 100% | viability, T/C [3] 94.3% | viability, T/C [4] 98.3% | viability, T/C (second compound 0.316 µM, first compound 0.000316 µM) 104% | viability, T/C (second compound 0.316 µM, first compound 0.001 µM) 106% | viability, T/C [5] 98.2% | viability, T/C [6] 102% | viability, T/C [7] 101% | viability, T/C [8] 106% | viability, T/C (second compound 1 µM, first compound 0.000316 µM) 105% | viability, T/C (second compound 1 µM, first compound 0.001 µM) 98.9% | viability, T/C [9] 101% | viability, T/C [10] 103% | viability, T/C [11] 104% | viability, T/C [12] 106% | viability, T/C (second compound 3.16 µM, first compound 0.000316 µM) 92.2% | viability, T/C (second compound 3.16 µM, first compound 0.001 µM) 99.1% | viability, T/C [13] 102% | viability, T/C [14] 102% | viability, T/C [15] 99.2% | viability, T/C [16] 92.4% | viability, T/C (second compound 10 µM, first compound 0.000316 µM) 99.1% | viability, T/C (second compound 10 µM, first compound 0.001 µM) 104% | viability, T/C [17] 95% | viability, T/C [18] 104% | viability, T/C [19] 97.7% | viability, T/C [20] 91.4%
> 100 nM: IC50 (second compound 0.1 µM) | IC50 (second compound 0.316 µM) | IC50 (second compound 1 µM) | IC50 (second compound 3.16 µM) | IC50 (second compound 10 µM)

NS(=O)(=O)OCC1CC(n2ccc3c(NC4CCc5ccccc54)ncnc32)CC1O (stereo not given) + NC1CC1c1ccc(-c2cccc(O)c2)cc1
> 3000 nM: IC50 (second compound 0.1 µM) | IC50 (second compound 0.316 µM) | IC50 (second compound 1 µM) | IC50 (second compound 3.16 µM) | IC50 (second compound 10 µM)
inactive: viability, T/C (second compound 0.1 µM, first compound 0.00949 µM) 83.6% | viability, T/C (second compound 0.1 µM, first compound 0.03 µM) 103% | viability, T/C (second compound 0.1 µM, first compound 0.0949 µM) 68% | viability, T/C (second compound 0.1 µM, first compound 0.3 µM) 82.2% | viability, T/C (second compound 0.1 µM, first compound 0.949 µM) 75.1% | viability, T/C (second compound 0.1 µM, first compound 3 µM) 57.5% | viability, T/C (second compound 0.316 µM, first compound 0.00949 µM) 77.8% | viability, T/C (second compound 0.316 µM, first compound 0.03 µM) 99.8% | viability, T/C (second compound 0.316 µM, first compound 0.0949 µM) 69.7% | viability, T/C (second compound 0.316 µM, first compound 0.3 µM) 80.5% | viability, T/C (second compound 0.316 µM, first compound 0.949 µM) 79.7% | viability, T/C (second compound 0.316 µM, first compound 3 µM) 60.7% | viability, T/C (second compound 1 µM, first compound 0.00949 µM) 72.3% | viability, T/C (second compound 1 µM, first compound 0.03 µM) 83.9% | viability, T/C (second compound 1 µM, first compound 0.0949 µM) 66.2% | viability, T/C (second compound 1 µM, first compound 0.3 µM) 72% | viability, T/C (second compound 1 µM, first compound 0.949 µM) 66% | viability, T/C (second compound 1 µM, first compound 3 µM) 63.6% | viability, T/C (second compound 3.16 µM, first compound 0.00949 µM) 71.6% | viability, T/C (second compound 3.16 µM, first compound 0.03 µM) 68.1% | viability, T/C (second compound 3.16 µM, first compound 0.0949 µM) 64.3% | viability, T/C (second compound 3.16 µM, first compound 0.3 µM) 68.7% | viability, T/C (second compound 3.16 µM, first compound 0.949 µM) 56% | viability, T/C (second compound 3.16 µM, first compound 3 µM) 64.3% | viability, T/C (second compound 10 µM, first compound 0.00949 µM) 64.4% | viability, T/C (second compound 10 µM, first compound 0.03 µM) 87.9% | viability, T/C (second compound 10 µM, first compound 0.0949 µM) 58.6% | viability, T/C (second compound 10 µM, first compound 0.3 µM) 65.8% | viability, T/C (second compound 10 µM, first compound 0.949 µM) 63% | viability, T/C (second compound 10 µM, first compound 3 µM) 57%
